Test system: 876862-298-R-J1-PDC complex spheroids, viability % test/control
Test: Anticancer human tumor 876862-298-R-J1-PDC patient-derived endometrial carcinoma cell line growth inhibition [CLK]
Conditions: for IC50: curve of first compound; for viability, T/C: stronger effect = lower value; active means viability on the fitted dose curve at most 10% of control; inactive means the rest
Summary of the method: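 Patient-derived tumor cells grown as complex spheroids with HUVEC endothelial cells and mesenchymal stem cells, treated with drug combinations. Concentrations descend in half-log steps from near clinical Cmax, or from 10 microM if Cmax unknown.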

[1] = second compound 0.0316 µM, first compound 0.0316 µM
[2] = second compound 0.0316 µM, first compound 0.1 µM
[3] = second compound 0.0316 µM, first compound 0.316 µM
[4] = second compound 0.0316 µM, first compound 1 µM
[5] = second compound 0.0316 µM, first compound 3.16 µM
[6] = second compound 0.0316 µM, first compound 10 µM
[7] = second compound 0.1 µM, first compound 0.0316 µM
[8] = second compound 0.1 µM, first compound 0.1 µM
[9] = second compound 0.1 µM, first compound 0.316 µM
[10] = second compound 0.1 µM, first compound 1 µM
[11] = second compound 0.1 µM, first compound 3.16 µM
[12] = second compound 0.1 µM, first compound 10 µM
[13] = second compound 0.316 µM, first compound 0.0316 µM
[14] = second compound 0.316 µM, first compound 0.1 µM
[15] = second compound 0.316 µM, first compound 0.316 µM
[16] = second compound 0.316 µM, first compound 1 µM
[17] = second compound 0.316 µM, first compound 3.16 µM
[18] = second compound 0.316 µM, first compound 10 µM
[19] = second compound 1 µM, first compound 0.0316 µM
[20] = second compound 1 µM, first compound 0.1 µM
[21] = second compound 1 µM, first compound 0.316 µM
[22] = second compound 1 µM, first compound 1 µM
[23] = second compound 1 µM, first compound 3.16 µM
[24] = second compound 1 µM, first compound 10 µM
[25] = second compound 3.16 µM, first compound 0.0316 µM
[26] = second compound 3.16 µM, first compound 0.1 µM
[27] = second compound 3.16 µM, first compound 0.316 µM
[28] = second compound 3.16 µM, first compound 1 µM
[29] = second compound 3.16 µM, first compound 3.16 µM
[30] = second compound 3.16 µM, first compound 10 µM
[31] = second compound 10 µM, first compound 0.0316 µM
[32] = second compound 10 µM, first compound 0.1 µM
[33] = second compound 10 µM, first compound 0.316 µM
[34] = second compound 10 µM, first compound 1 µM
[35] = second compound 10 µM, first compound 3.16 µM
[36] = second compound 10 µM, first compound 10 µM
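Further: spheroids exposed to drugs for 7 days before readout.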
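Wherever viability, T/C is given: 100% = DMSO vehicle control wells.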

C#Cc1c(F)ccc2cc(O)cc(-c3ncc4c(N5CC6CCC(C5)N6)nc(OCC56CCCN5CC(F)C6)nc4c3F)c12 (stereo not drawn) + CN1CCN(c2cc(C(=O)Nc3cc4cc(-c5cnn(C)c5)ccc4cn3)ccn2)CC1
< 31.6 nM: IC50 (second compound 0.316 µM) | IC50 (second compound 1 µM) | IC50 (second compound 3.16 µM) | IC50 (second compound 10 µM)
> 10000 nM: IC50 (second compound 0.0316 µM)
active: viability, T/C [13] 5.98% | viability, T/C [14] 5.2% | viability, T/C [15] 5.69% | viability, T/C [16] 4.19% | viability, T/C [17] 5.76% | viability, T/C [18] 4.81% | viability, T/C [19] 0.92% | viability, T/C [20] 0.91% | viability, T/C [21] 0.75% | viability, T/C [22] 1.82% | viability, T/C [23] 1.86% | viability, T/C [24] 1.68% | viability, T/C [25] 1.56% | viability, T/C [26] 2.17% | viability, T/C [27] 1.31% | viability, T/C [28] 2.48% | viability, T/C [29] 2.22% | viability, T/C [30] 3.07% | viability, T/C [31] 0.96% | viability, T/C [32] 0.95% | viability, T/C [33] 1.74% | viability, T/C [34] 1.58% | viability, T/C [35] 2.68% | viability, T/C [36] 1.54%
501 nM: IC50 (second compound 0.1 µM)
inactive: viability, T/C [1] 98.9% | viability, T/C [2] 92.6% | viability, T/C [3] 87.8% | viability, T/C [4] 93.7% | viability, T/C [5] 91.6% | viability, T/C [6] 74.1% | viability, T/C [7] 51.6% | viability, T/C [8] 52.2% | viability, T/C [9] 50.8% | viability, T/C [10] 48.6% | viability, T/C [11] 47.7% | viability, T/C [12] 45.4%

CC(CO)NC(=O)c1cc(-c2ccc(Cl)cc2)nn(-c2cnn(C)c2)c1=O (stereo not drawn) + CN1CCN(c2cc(C(=O)Nc3cc4cc(-c5cnn(C)c5)ccc4cn3)ccn2)CC1
active: viability, T/C [13] 5.52% | viability, T/C [14] 5.79% | viability, T/C [15] 7.05% | viability, T/C [16] 8.98% | viability, T/C [17] 8.34% | viability, T/C [18] 8.71% | viability, T/C [19] 1.36% | viability, T/C [20] 1.36% | viability, T/C [21] 2.15% | viability, T/C [22] 1.19% | viability, T/C [23] 1.66% | viability, T/C [24] 1.71% | viability, T/C [25] 1.12% | viability, T/C [26] 1.53% | viability, T/C [27] 2.58% | viability, T/C [28] 1.7% | viability, T/C [29] 2.81% | viability, T/C [30] 2.69% | viability, T/C [31] 1.23% | viability, T/C [32] 1.96% | viability, T/C [33] 2.08% | viability, T/C [34] 2.68% | viability, T/C [35] 1.84% | viability, T/C [36] 2.5%
inactive: viability, T/C [1] 94.8% | viability, T/C [2] 81.7% | viability, T/C [3] 69.5% | viability, T/C [4] 68.8% | viability, T/C [5] 67.5% | viability, T/C [6] 57.3% | viability, T/C [7] 53.9% | viability, T/C [8] 52.5% | viability, T/C [9] 49% | viability, T/C [10] 46.2% | viability, T/C [11] 49.5% | viability, T/C [12] 43.7%
> 10000 nM: IC50 (second compound 0.0316 µM)
319 nM: IC50 (second compound 0.1 µM)
< 31.6 nM: IC50 (second compound 0.316 µM) | IC50 (second compound 1 µM) | IC50 (second compound 3.16 µM) | IC50 (second compound 10 µM)

CC(Nc1ccc2c(c1)OCCn1cc(N3C(=O)OCC3C(F)F)nc1-2)C(N)=O (stereo not drawn) + CN1CCN(c2cc(C(=O)Nc3cc4cc(-c5cnn(C)c5)ccc4cn3)ccn2)CC1
< 31.6 nM: IC50 (second compound 0.1 µM) | IC50 (second compound 0.316 µM) | IC50 (second compound 1 µM) | IC50 (second compound 3.16 µM) | IC50 (second compound 10 µM)
862 nM: IC50 (second compound 0.0316 µM)
active: viability, T/C [13] 3.15% | viability, T/C [14] 3.14% | viability, T/C [15] 3.55% | viability, T/C [16] 2.62% | viability, T/C [17] 2.92% | viability, T/C [18] 3.77% | viability, T/C [19] 0.54% | viability, T/C [20] 0.79% | viability, T/C [21] 1.03% | viability, T/C [22] 0.19% | viability, T/C [23] 0.18% | viability, T/C [24] 1.05% | viability, T/C [25] 0.69% | viability, T/C [26] 2.49% | viability, T/C [27] 1.55% | viability, T/C [28] 2.4% | viability, T/C [29] 2.04% | viability, T/C [30] 0.86% | viability, T/C [31] 1.76% | viability, T/C [32] 0.59% | viability, T/C [33] 1.6% | viability, T/C [34] 0.79% | viability, T/C [35] 0.45% | viability, T/C [36] 1.26%
inactive: viability, T/C [1] 88.6% | viability, T/C [2] 79% | viability, T/C [3] 56.9% | viability, T/C [4] 50% | viability, T/C [5] 38.6% | viability, T/C [6] 28.6% | viability, T/C [7] 43% | viability, T/C [8] 41.3% | viability, T/C [9] 32.6% | viability, T/C [10] 25.1% | viability, T/C [11] 21.5% | viability, T/C [12] 15.5%

COc1c(OCCCN2CCOCC2)ccc2c3n(c(=NC(=O)c4cnc(N)nc4)nc12)CCN3 + CN1CCN(c2cc(C(=O)Nc3cc4cc(-c5cnn(C)c5)ccc4cn3)ccn2)CC1
active: viability, T/C (second compound 0.316 µM, first compound 0.00316 µM) 4.86% | viability, T/C (second compound 0.316 µM, first compound 0.01 µM) 2.92% | viability, T/C [13] 3.87% | viability, T/C [14] 3.03% | viability, T/C [15] 3.72% | viability, T/C [16] 2.59% | viability, T/C (second compound 1 µM, first compound 0.00316 µM) 0.47% | viability, T/C (second compound 1 µM, first compound 0.01 µM) 1.56% | viability, T/C [19] 0.48% | viability, T/C [20] 0.16% | viability, T/C [21] 1.64% | viability, T/C [22] 1.15% | viability, T/C (second compound 3.16 µM, first compound 0.00316 µM) 1.02% | viability, T/C (second compound 3.16 µM, first compound 0.01 µM) 1.06% | viability, T/C [25] 1.3% | viability, T/C [26] 1.09% | viability, T/C [27] 1.55% | viability, T/C [28] 0.99% | viability, T/C (second compound 10 µM, first compound 0.00316 µM) 0.74% | viability, T/C (second compound 10 µM, first compound 0.01 µM) 1.11% | viability, T/C [31] 0.45% | viability, T/C [32] 1.75% | viability, T/C [33] 2.12% | viability, T/C [34] 1.84%
48.3 nM: IC50 (second compound 0.0316 µM)
< 3.16 nM: IC50 (second compound 0.1 µM) | IC50 (second compound 0.316 µM) | IC50 (second compound 1 µM) | IC50 (second compound 3.16 µM) | IC50 (second compound 10 µM)
inactive: viability, T/C (second compound 0.0316 µM, first compound 0.00316 µM) 90.4% | viability, T/C (second compound 0.0316 µM, first compound 0.01 µM) 74.4% | viability, T/C [1] 65.2% | viability, T/C [2] 26.8% | viability, T/C [3] 16.7% | viability, T/C [4] 17.8% | viability, T/C (second compound 0.1 µM, first compound 0.00316 µM) 47.1% | viability, T/C (second compound 0.1 µM, first compound 0.01 µM) 40% | viability, T/C [7] 28.3% | viability, T/C [8] 14.6% | viability, T/C [9] 11.1% | viability, T/C [10] 13.2%

From PubChem BioAssay AID2060607 (Molecular Pharmacology Branch, DTP, NCI, 2025)
